The test system of one assay is Normotensive Rats. As to the kind of experiment: Effect on Normotensive Rats (duration of hypotensive effect after oral dosing). Format: in vivo. The settings on record: 10 mg/kg, normotensive male S.D. rats fasted about 18 hours. On the procedure: 7 to 9-week-old male S.D. rats with mean arterial blood pressure of 100-125 mmHg, weighing 245-375 g, were used. The animals were cannulated in the left femoral artery and the mean blood pressure and heart rate were measured with a pressure-transducer. The drugs were given orally. The animals were deprived of food for about 18 hours before oral dosing. The test drugs were dissolved in saline or ethanol, and given in oral doses of 10 mg/kg. The duration of half the maximum hypotensive effect was calculated as T 1/2. Compound 1 ,and Compound A.

For another assay, the system named is Isolated Rat Aorta. As to the kind of experiment: Effect on Isolated Rat Aorta (relaxation of norepinephrine-contracted aortic strips). The settings on record: aortic spiral strips, norepinephrine 3.2 ×10^-8 M tonus, 37° C., effect of papaverine 10^-4 M=100%, read-out: ED50 value. On the procedure: The aortas were removed from rats. Spiral strips approximately 10 mm in length were cut from the aorta, and suspended in an organ bath containing Tyrode's solution at 37° C., aerated with a gas mixture of 95% oxygen and 5% carbon dioxide. The tonus of the strips was recorded on a polygraph with a force-displacement transducer. After the initial resting tension was adjusted to 0.5 g, norepinephrine 3.2 ×10^-8 M was added to the organ bath to increase the tonus of the aortic strips to 0.9-1.1 g.
The cumulative concentrations of the test compound were then added, and finally papaverine 10^-4 M was given to determine maximum relaxation. ED50 values were calculated by interpolation from the mean cumulative dose-activity curves (effect of papaverine 10^-4 M=100%).
N-(2-Nitrooxyethyl)-2-methyl-4-thiazolecarboxamide hydrochloride (hereinafter referred to as Compound .circle.1 ), and N-(2-Nitrooxyethyl)-3-pyridinecarboxamide (Reference Compound A) (hereinafter referred to as Compound A).

≈ marks a conversion by molar mass, not a printed value.

For the compound `Cc1nc(C(=O)NCCO[N+](=O)[O-])cs1` [.circle.1], the “T 1/2 (duration of half the maximum hypotensive effect)” value with Normotensive Rats is 1.67 h. For the same compound, the EC50 in the assay on Isolated Rat Aorta was found to be 0.091 µg/mL (≈ 0.394 µM).

In the case of `O=C(NCCO[N+](=O)[O-])c1cccnc1` [Compound A, N-(2-Nitrooxyethyl)-3-pyridinecarboxamide], in the assay with Normotensive Rats, the “T 1/2 (duration of half the maximum hypotensive effect)” value came out at 0.833 h. Moreover, the EC50 in the assay on Isolated Rat Aorta came to 0.94 µg/mL (≈ 4.45 µM).

The values are drawn from patent US5010093A, “Nitric ester derivative” (Fujisawa Pharmaceutical Co., Ltd., priority 1987, dated 1991).
